{"source": "paper doi:10.1101/2025.07.20.665728", "about": "(bioRxiv, 2025)", "key": {"C1R.MR1^K43A cells": {"tested_on": "C1R.MR1^K43A cells", "assay": "Cell surface MR1 K43A quantification, C1R.MR1^K43A", "format": "cell-based", "source_text": "We then tested the effect of the RF catabolites on the expression of two mutant versions of MR1 termed MR1^R9H ([Howson et al., 2020]) and MR1^K43A ([Reantragoon et al., 2013]). First, we tested the MR1^R9H mutant ([Howson et al., 2020]) which represents a rare, natural human polymorph. […] When C1R. […] Next, we tested sought to understand how the previously characterised Lys43A mutation affects ligand binding. […] While this is in line with the ability of these ligands to bind MR1, the reason for MR1^K43A cell surface accumulation is less clear. The most likely explanation is that these ligands bind ER-resident MR1^K43A, in line with our data using wild-type MR1; however, because the K43A mutation results in spontaneous MR1 surface egress, the presence of these stabilising ligands promotes enhanced trafficking and/or retention at the cell surface. We cannot rule out however that the ligands may also bind directly to surface MR1^K43A and slow down the recycling from cell surface.\nThe level of MR1 expressed on the cell surface was measured after the exposure to the investigated ligands as previously described ([Awad et al., 2020a]; [Wang et al., 2022a]). C1R antigen presenting B lymphocytes overexpressing MR1*01 (C1R.MR1), MR1^K43A mutant (C1R.MR1^K43A), MR1^R9H mutant (C1R.MR1^R9H) or HLA-A*02:01 (C1R-A2), in addition to the monocytic THP-1-MR1 cells, were used in this study. 2 x 10^5 cells were incubated with RF catabolites for 3 or 16 h at 37° C and 5% CO2 in 200 μl folate-free RPMI 1640 medium from Gibco (Cat. No. 11875-093) fortified with 10% fetal bovine serum (FBS), sodium pyruvate (1 mmol/L), Hepes buffer (15 mmol/L), pH 7.2 to 7.5, 2% penicillin (100 U/ml), streptomycin ([…]), glutamax (2 mmol/L), nonessential amino acids (0.1 mmol/L) (all from ThermoFisher, Life Technologies), and 2-mercaptoethanol ([…], Sigma) (RF-10). After incubation, the cells were first stained with Zombie Aqua Fixable Viability Kit from BioLegend (Cat. No. 423102) and then incubated with biotinylated 8F2F9 αMR1 antibody for 30 minutes on ice. The unbound antibody was then washed off with 2% fetal bovine serum/PBS. The cells were finally incubated with PE-conjugated streptavidin (BioLegend, 30 μg/ml) and then washed with 2% fetal bovine serum/PBS. The PE fluorescence intensity reflects the surface MR1 level. The data was acquired with an LSRFortessa X-20 (BD Biosciences) and Diva software (BD Biosciences) and analyzed using FlowJo software (BD Biosciences).\nFigure S2. Responses of different APCs to RF catabolites. […] C1R cells expressing (b) wild-type level of MR1*01, or overexpressing (c) HLA-A*02:01 or (d) MR1.K43A mutant were incubated for the indicated periods with titrated quantities of ligand followed by flow cytometry. The C1R and C1R.A2 cells were stained with biotinylated 8F2F9 and W6/32, respectively; followed by PE-labelled streptavidin. In all experiments, the MR1 and HLA-A*02:01 surface expression are depicted as a fold change from basal surface expression upon incubation with the vehicle (1 mM NaOH). Each column represents the average of at least three independent experiments performed in duplicate with standard error (SEM) represented by error bars. One-way ANOVA statistical analysis was performed for all samples followed by Dunnett multiple comparison test using NaOH as a control (ns; not significant, * p <0.05, **p < 0.01, ***p < 0.001, ****p < 0.0001)."}, "soluble WT MR1": {"tested_on": "soluble WT MR1", "assay": "Fluorescence-based thermal shift assay of MR1-ligand complexes", "format": "binding, human", "settings": "MR1 refolded with the ligand, Sypro Orange, three independent experiments"}, "[1]": {"tested_on": "SKW-3 cells expressing MBV28 (TRAV1-2/TRBV28) TCR", "assay": "MAIT cell activation assay, SKW-3 MBV28 TCR co-cultured with C1R.MR1", "format": "cell-based", "settings": "for 5-OP-RU-induced activation (CD69): SKW-3 MBV28, in presence of 1 nM 5-OP-RU", "method": "(§1) Next, we explored whether RF catabolites could activate SKW-3 cells expressing two different MAIT TCRs. Distinct responses of T cells expressing TCRs with varying TRBV chain usage reinforces the role of Vβ in modulating MAIT responses to various ligands ([Chancellor et al., 2023]; [Gherardin et al., 2016]; [Seneviratna et al., 2022]).The surface expression of CD69 was measured as a marker for activation of cells expressing the AF-7 (TRAV1-2/TRBV6-1) or MBV28 (TRAV1-2/TRBV28) TCRs after co-culture with C1R.MR1 cells and the ligands.\n(§2) C1R.MR1 cells (1 x 10^5) were initially stained with CTV for 15 minutes and then incubated with RF catabolites for 20 h. […] Cells were subsequently stained with PE-Cy7-conjugated anti-CD69 (BD; 1:100) and PE-labelled anti-MR1 (26.5 clone; BD; 1:100), before analysis on LSRFortessa (BD Biosciences) flow cytometer. Activation of SKW-3-MAIT cells was reflected by the cell-surface CD69 expression."}, "hMR1 protein": {"molecular_target": "T1, hMR1 protein (Homo sapiens, UniProt Q95460)", "T1 construct": "plasmids encoding for the extracellular domains of MR1, β2m, and the AF-7 TCRα and TCRβ chains; made in house", "T1 sequence (Q95460 23-302 limits assumed)": "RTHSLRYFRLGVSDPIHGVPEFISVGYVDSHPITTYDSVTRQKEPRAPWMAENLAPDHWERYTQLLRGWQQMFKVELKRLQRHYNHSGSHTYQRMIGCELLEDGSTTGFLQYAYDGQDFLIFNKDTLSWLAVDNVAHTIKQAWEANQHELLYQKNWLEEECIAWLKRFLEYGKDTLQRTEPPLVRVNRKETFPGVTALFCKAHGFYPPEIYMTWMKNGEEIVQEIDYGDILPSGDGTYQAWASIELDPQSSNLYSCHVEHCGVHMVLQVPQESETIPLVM", "T1 sequence (P61769 21-119 partner)": "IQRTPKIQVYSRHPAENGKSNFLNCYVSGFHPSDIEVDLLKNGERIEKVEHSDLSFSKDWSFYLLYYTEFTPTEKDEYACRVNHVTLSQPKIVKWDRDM", "assay": "Fluorescence polarization (FP)-based cell-free MR1 binding assay (competition with JYM20)"}, "[2]": {"tested_on": "SKW-3 cells expressing AF-7 (TRAV1-2/TRBV6-1) TCR", "assay": "MAIT cell activation assay, SKW-3 AF-7 TCR co-cultured with C1R.MR1", "format": "cell-based", "settings": "for 5-OP-RU-induced activation (CD69): SKW-3 AF-7, in presence of 1 nM 5-OP-RU; for CD69 surface expression (activation): SKW-3 AF-7, ligand alone", "method": "as §1, §2"}, "[3]": {"settings": "competition with 10 nM JYM20 for 100 nM empty hMR1, 37°C, read-out: IC50"}}, "note": "Where “and” joins values, the source holds several entries; their conditions need not be identical. Identical values can stand only once. Like-named read-outs stand apart in the source and are kept apart here.", "data": [{"smiles": "O=c1nc2[nH]c3ccccc3nc-2c(=O)[nH]1", "note": "[Alloxazine, alloxazine]", "values": [{"measurement": "MR1^K43A at the cell surface", "setting": "C1R.MR1^K43A cells; 3 h", "result": "increased"}, {"measurement": "Tm50 (half maximum melting temperature), Mean ± SD", "setting": "soluble WT MR1; listed as MR1-alloxazine", "result": "49.9–52.0 °C"}, {"measurement": "5-OP-RU-induced activation (CD69)", "setting": "[1]", "result": "could interfere with the 5-OP-RU-induced activation of MBV28 in a dose-dependent manner"}, {"measurement": "IC50", "setting": "hMR1 protein; [3]", "result": 13.4, "unit": "µM"}]}, {"smiles": "Cc1cc2nc3[nH]c(=O)[nH]c(=O)c3nc2cc1C", "note": "[Lumichrome, 7,8-dimethylalloxazine]", "values": [{"measurement": "MR1^K43A at the cell surface", "setting": "C1R.MR1^K43A cells; 3 h", "result": "increased"}, {"measurement": "MR1^K43A at the cell surface", "setting": "C1R.MR1^K43A cells; 16 h", "result": "MR1 upregulation continues"}, {"measurement": "Tm50 (half maximum melting temperature), Mean ± SD", "setting": "soluble WT MR1; listed as MR1-lumichrome", "result": "49.9–52.0 °C"}, {"measurement": "5-OP-RU-induced activation (CD69)", "setting": "[1]", "result": "enhanced the 5-OP-RU-induced CD69 expression"}, {"measurement": "CD69 surface expression (activation)", "setting": "[1]; SKW-3 MBV28, ligand alone", "result": "minor reductions in CD69"}, {"measurement": "MR1 expression on C1R.MR1 in co-culture", "setting": "[1]; SKW-3 MBV28 co-culture with 5-OP-RU", "result": "dose-dependent reduction in MR1 expression"}, {"measurement": "IC50", "setting": "hMR1 protein; [3]", "result": 12.5, "unit": "µM"}, {"measurement": "5-OP-RU-induced activation (CD69)", "setting": "[2]", "result": "enhanced the 5-OP-RU-induced CD69 expression"}, {"measurement": "CD69 surface expression (activation)", "setting": "[2]", "result": "minor reductions in CD69"}, {"measurement": "MR1 expression on C1R.MR1 in co-culture", "setting": "[2]; SKW-3 AF-7 co-culture with 5-OP-RU", "result": "dose-dependent reduction in MR1 expression"}]}, {"smiles": "Cc1cc2nc3c(=O)[nH]c(=O)nc-3n(C)c2cc1C", "note": "[Lumiflavin]", "values": [{"measurement": "MR1^K43A at the cell surface", "setting": "C1R.MR1^K43A cells; 3 h", "result": "increased"}, {"measurement": "Tm50 (half maximum melting temperature), Mean ± SD", "setting": "soluble WT MR1; listed as MR1-lumiflavin", "result": "49.9–52.0 °C"}, {"measurement": "IC50", "setting": "hMR1 protein; IC50, competition with 10 nM JYM20 for 100 nM empty hMR1, 37°C", "result": 22.8, "unit": "µM"}, {"measurement": "5-OP-RU-induced activation (CD69)", "setting": "[2]", "result": "slightly exaggerated"}, {"measurement": "CD69 surface expression (activation)", "setting": "[2]", "result": "minor increase in CD69"}]}, {"smiles": "Cc1cc2nc3c(=O)[nH]c(=O)nc-3n(C[C@H](O)[C@H](O)[C@H](O)CO)c2cc1C", "note": "[RF, Riboflavin]", "values": [{"measurement": "MR1^K43A at the cell surface", "setting": "C1R.MR1^K43A cells; 16 h", "result": "MR1 upregulation continues"}, {"measurement": "5-OP-RU-induced activation (CD69)", "setting": "[1]", "result": "could not compete with 5-OP-RU"}, {"measurement": "IC50", "setting": "hMR1 protein; [3]", "result": "~182 µM and 182 µM"}, {"measurement": "5-OP-RU-induced activation (CD69)", "setting": "[2]", "result": "could not compete with 5-OP-RU"}, {"measurement": "CD69 surface expression (activation)", "setting": "[2]", "result": "minor increase in CD69"}]}]}
